As usually defined, the IC50 is the concentration needed to halve the response being measured. As a reminder, the melting point is the temperature of the solid-liquid transition. As usually defined, the inhibition is the drop in the measured response relative to a control, in per cent. Lower therefore signals a weak effect.

Data on nine compounds can be found in PMC6269792, “Arylsulfonylamino-Benzanilides as Inhibitors of the Apical Sodium-Dependent Bile Salt Transporter (SLC10A2)” (Molecules, 2013).

One data set deals with ASBT. Particulars: read-out: IC50 against ASBT; cited from earlier work.
The target in the next data set is T1, Human ASBT (Homo sapiens, UniProt Q12908).
T1 construct: expressed in transfected cells; host or cells: HEK293T
T1 sequence (Q12908 1-348): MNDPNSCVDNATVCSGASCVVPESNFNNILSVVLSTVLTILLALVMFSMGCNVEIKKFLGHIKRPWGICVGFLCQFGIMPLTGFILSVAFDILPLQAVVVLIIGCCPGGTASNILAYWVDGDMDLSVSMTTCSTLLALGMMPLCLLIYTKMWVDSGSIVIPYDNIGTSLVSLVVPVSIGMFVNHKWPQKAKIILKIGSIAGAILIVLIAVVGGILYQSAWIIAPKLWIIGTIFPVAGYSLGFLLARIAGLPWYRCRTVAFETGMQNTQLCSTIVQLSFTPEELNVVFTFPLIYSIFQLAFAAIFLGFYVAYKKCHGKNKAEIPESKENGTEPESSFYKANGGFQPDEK
Nature of the data set: ASBT inhibition assay: [3H]-taurocholic acid uptake in HEK293T cells transiently transfected with human ASBT. Type of data set: cell-based. As to conditions: for inhibition at 10 µM: HEK-293T; for IC50: inhibitor concentration that gives 50% taurocholate uptake compared to no inhibitor control. The protocol:
In vitro inhibitory activity of all target compounds against ASBT was evaluated using a radioisotope-based assay. All the newly synthesized derivatives were initially tested at 10 μM concentration (Table 1).
HEK293T was obtained from the American Type Culture Collection (Manassas, VA, USA), and grown in MEM supplemented with 100 U/mL penicillin and […] streptomycin and 10% heat-inactivated fetal bovine serum. Human ASBT expression construct was prepared as previously described. HEK293T cells were seeded in 12 well plates and transiently transfected with 0.5 μg/well pcDNA3.1/ASBT or negative control plasmid pcDNA3.1 using lipofactamine 2000 (Invitrogen, Carlsbad, CA, USA) according to the manufacturer’s instructions. Twenty-four hours after transfection, HEK293T cells were assayed for taurocholic acid uptake as previously described with minor modifications. […] To terminate the transport process, the plates were chilled on ice and the cells were immediately washed with ice-cold buffer three times. Cells were lysed with 0.3 mL lysis buffer (0.5% triton x-100) and shaken vigorously for 20 min. The radioactivity of the cell lysate was counted using a MicroBeta^2 Liquid Scintillation and Luminescence Counter (PerkinElmer Life Sciences). Protein concentration of the lysate was used to normalize uptake activity.
The inhibition rate was calculated using the following formula: Inhibition Rate (%) = [(1 − (A − C)/(B − C)] × 100
A, [^3H] uptake value of test compound in [^3H]-TCA buffer added to pcDNA3.1/ASBT transfected cells; B, [^3H] uptake value of DMSO (without inhibitor) in [^3H]-TCA buffer added to pcDNA3.1/ASBT transfected cells; C, [^3H] uptake value of Blank sample (DMSO) in [^3H]-TCA buffer added to empty vector (pcDNA3.1) transfected cells.

SMILES strings stand for the structures.

Consider `O=C(Nc1ccc(Cl)c(Cl)c1)c1ccccc1NS(=O)(=O)c1cccc([N+](=O)[O-])c1` [Compound 5a1, N-(3,4-Dichlorophenyl)-2-(3-nitrophenylsulfonamido)benzamide], for which the IC50 with ASBT is 4000 nM.

In turn, `COc1cccc(S(=O)(=O)Nc2ccccc2C(=O)Nc2ccc(F)c(Cl)c2)c1` [Compound 5f2, N-(3-Chloro-4-fluorophenyl)-2-(3-methoxyphenylsulfonamido)benzamide] came in with a melting point of 181.9 to 183.2 °C. This compound showed an inhibition at 10 µM against Human ASBT of 59.5 ± 3.6%.

`COc1cccc(S(=O)(=O)Nc2ccccc2C(=O)Nc2ccc(C)c(C(F)(F)F)c2)c1` [Compound 5f3, 2-(3-Methoxyphenylsulfonamido)-N-(4-methyl-3-(trifluoromethyl)phenyl)benzamide] displayed a melting point of 165.7 to 166.6 °C. This compound also had an inhibition at 10 µM at Human ASBT of 43 ± 3.2%.

Turning to `COc1cccc(S(=O)(=O)Nc2ccccc2C(=O)Nc2cccc(OC(F)(F)F)c2)c1` [Compound 5f4, 2-(3-Methoxyphenylsulfonamido)-N-(3-(trifluoromethoxy)phenyl)benzamide], the melting point is 149.3 to 150.8 °C. This compound returned an inhibition at 10 µM at Human ASBT of 25.8 ± 2.1%.

Compound `COc1cccc(S(=O)(=O)Nc2ccccc2C(=O)Nc2ccc(Cl)c(Cl)c2)c1` [Compound 5f5, N-(3,4-Dichlorophenyl)-2-(3-methoxyphenylsulfonamido)benzamide] yielded a melting point of 160.3 to 161.4 °C. Besides, the inhibition at 10 µM against Human ASBT was determined as 20.1 ± 1.9%.

As to `O=C(Nc1ccc(Cl)cc1Cl)c1ccccc1NS(=O)(=O)c1cccc(OC(F)(F)F)c1` [Compound 5g1, N-(2,4-Dichlorophenyl)-2-(3-(trifluoromethoxy)phenylsulfonamido)benzamide], the melting point is 151.6 to 152.8 °C. On Human ASBT, this compound came in with an inhibition at 10 µM of 89.3 ± 3.3% and an IC50 of 910 ± 180 nM.

`O=C(Nc1ccc(F)c(Cl)c1)c1ccccc1NS(=O)(=O)c1cccc(OC(F)(F)F)c1` [Compound 5g2, N-(3-Chloro-4-fluorophenyl)-2-(3-(trifluoromethoxy)phenylsulfonamido)benzamide] registered a melting point of 157.3 to 158.6 °C. On Human ASBT, the inhibition at 10 µM is 98.6 ± 2.6% and the IC50 worked out at 110 ± 50 nM.

As for `Cc1ccc(NC(=O)c2ccccc2NS(=O)(=O)c2cccc(OC(F)(F)F)c2)cc1C(F)(F)F` [Compound 5g3, N-(4-Methyl-3-(trifluoromethyl)phenyl)-2-(3-(trifluoromethoxy)phenylsulfonamido)benzamide], the melting point is 179.4 to 180.5 °C. For the same compound, at Human ASBT, 10 µM produced 91.8 ± 3.5% inhibition and inhibition was half-maximal at 830 ± 110 nM (IC50).

Turning to `O=C(Nc1cccc(OC(F)(F)F)c1)c1ccccc1NS(=O)(=O)c1cccc(OC(F)(F)F)c1` [Compound 5g4, N-(3-(Trifluoromethoxy)phenyl)-2-(3-(trifluoromethoxy)phenylsulfonamido)benzamide], the melting point is 169.1 to 170.4 °C. On Human ASBT, this compound returned an inhibition at 10 µM of 88.1 ± 2.7% and an IC50 of 1030 ± 160 nM.
